From ChEMBL document CHEMBL1909046, “DrugMatrix in vitro pharmacology data”

Test system: not listed separately
Assay: DRUGMATRIX: Sigma2 radioligand binding (ligand: [3H] Ifenprodil)
Assay type: cell membranes, Rattus norvegicus, Wistar, Brain, Membrane
Settings: Not Active = under 50% inhibition at 10 µM

SMILES	IC50	Ki
COc1cc2c(c3oc(=O)c4c(c13)CCC4=O)[C@@H]1C=CO[C@@H]1O2 [AFLATOXIN]	Not Active	Not Active
N=C(N)NC(=O)c1nc(Cl)c(N)nc1N [AMILORIDE]	Not Active	Not Active
Cc1cc(=O)n(-c2ccccc2)n1C [ANTIPYRINE]	Not Active	Not Active
CN1C(=O)COc2c(C(=O)NC3CN4CCC3CC4)cc(Cl)cc21 (configuration not stated) [AZASETRON]	Not Active	Not Active
C[C@H]1C[C@H]2[C@@H]3CCC4=CC(=O)C=C[C@]4(C)[C@@]3(Cl)[C@@H](O)C[C@]2(C)[C@@]1(O)C(=O)CO [BECLOMETHASONE]	Not Active	Not Active
CCOC(=O)[C@H](CCc1ccccc1)N[C@H]1CCc2ccccc2N(CC(=O)O)C1=O [BENAZEPRIL]	Not Active	Not Active
Nc1c(CC(=O)O)cccc1C(=O)c1ccc(Br)cc1 [BROMFENAC]	Not Active	Not Active

Target: cGMP-specific 3',5'-cyclic phosphodiesterase (Homo sapiens, UniProt O76074)
Assay: DRUGMATRIX: Phosphodiesterase PDE5 enzyme inhibition (substrate: [3H]cGMP + cGMP)
Assay type: tissue-based
Settings: platelet; Not Active = under 50% inhibition at 10 µM

SMILES	IC50	Ki
COc1cc2c(c3oc(=O)c4c(c13)CCC4=O)[C@@H]1C=CO[C@@H]1O2 [AFLATOXIN]	Not Active	Not Active
N=C(N)NC(=O)c1nc(Cl)c(N)nc1N [AMILORIDE]	Not Active	–
Cc1cc(=O)n(-c2ccccc2)n1C [ANTIPYRINE]	Not Active	–
CN1C(=O)COc2c(C(=O)NC3CN4CCC3CC4)cc(Cl)cc21 (configuration not stated) [AZASETRON]	Not Active	–
C[C@H]1C[C@H]2[C@@H]3CCC4=CC(=O)C=C[C@]4(C)[C@@]3(Cl)[C@@H](O)C[C@]2(C)[C@@]1(O)C(=O)CO [BECLOMETHASONE]	Not Active	–
CCOC(=O)[C@H](CCc1ccccc1)N[C@H]1CCc2ccccc2N(CC(=O)O)C1=O [BENAZEPRIL]	Not Active	–
Nc1c(CC(=O)O)cccc1C(=O)c1ccc(Br)cc1 [BROMFENAC]	Not Active	–

Target: T1, Alpha-1A adrenergic receptor (Rattus norvegicus, UniProt P43140)
T1 sequence (P43140 whole entry): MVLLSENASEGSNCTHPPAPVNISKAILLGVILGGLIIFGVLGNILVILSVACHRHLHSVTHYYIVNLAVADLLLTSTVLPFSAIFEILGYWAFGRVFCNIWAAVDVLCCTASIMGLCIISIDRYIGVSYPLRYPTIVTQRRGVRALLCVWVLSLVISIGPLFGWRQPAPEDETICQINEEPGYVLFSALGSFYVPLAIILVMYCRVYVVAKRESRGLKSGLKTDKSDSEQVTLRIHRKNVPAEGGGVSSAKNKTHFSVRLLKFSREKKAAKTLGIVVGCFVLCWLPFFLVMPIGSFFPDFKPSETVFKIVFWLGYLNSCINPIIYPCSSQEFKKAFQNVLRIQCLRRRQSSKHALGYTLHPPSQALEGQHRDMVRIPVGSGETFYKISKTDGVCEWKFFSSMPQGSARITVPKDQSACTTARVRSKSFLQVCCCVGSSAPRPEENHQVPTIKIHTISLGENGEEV
Assay: DRUGMATRIX: Alpha-1A adrenergic receptor radioligand binding (ligand: prazosin)
Assay type: cell membranes, Wistar, Submaxillary gland, Membrane
Settings: Not Active = under 50% inhibition at 10 µM

SMILES	IC50	Ki
COc1cc2c(c3oc(=O)c4c(c13)CCC4=O)[C@@H]1C=CO[C@@H]1O2 [AFLATOXIN]	Not Active	Not Active
N=C(N)NC(=O)c1nc(Cl)c(N)nc1N [AMILORIDE]	Not Active	–
Cc1cc(=O)n(-c2ccccc2)n1C [ANTIPYRINE]	Not Active	–
CN1C(=O)COc2c(C(=O)NC3CN4CCC3CC4)cc(Cl)cc21 (configuration not stated) [AZASETRON]	Not Active	–
C[C@H]1C[C@H]2[C@@H]3CCC4=CC(=O)C=C[C@]4(C)[C@@]3(Cl)[C@@H](O)C[C@]2(C)[C@@]1(O)C(=O)CO [BECLOMETHASONE]	Not Active	–
CCOC(=O)[C@H](CCc1ccccc1)N[C@H]1CCc2ccccc2N(CC(=O)O)C1=O [BENAZEPRIL]	Not Active	–
Nc1c(CC(=O)O)cccc1C(=O)c1ccc(Br)cc1 [BROMFENAC]	Not Active	–

Target: T2, 5-hydroxytryptamine receptor 1A (Rattus norvegicus, UniProt P19327); further: in other assays of this panel Not Active means under 50% inhibition at 10 µM
T2 sequence (P19327 whole entry): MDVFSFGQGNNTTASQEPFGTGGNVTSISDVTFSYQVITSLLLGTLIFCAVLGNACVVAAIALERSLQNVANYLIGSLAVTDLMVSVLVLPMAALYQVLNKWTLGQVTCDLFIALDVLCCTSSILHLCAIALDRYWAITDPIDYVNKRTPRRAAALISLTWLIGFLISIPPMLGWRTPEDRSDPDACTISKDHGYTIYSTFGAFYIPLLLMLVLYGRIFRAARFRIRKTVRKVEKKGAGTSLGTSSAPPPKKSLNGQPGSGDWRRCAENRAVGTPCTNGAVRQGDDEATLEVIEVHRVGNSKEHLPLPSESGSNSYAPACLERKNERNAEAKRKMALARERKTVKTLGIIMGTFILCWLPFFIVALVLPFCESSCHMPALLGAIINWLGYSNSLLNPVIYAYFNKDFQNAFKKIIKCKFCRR
Assay type: cell membranes, Membrane
Settings: cho-k1

SMILES	IC50	Ki
COc1cc2c(c3oc(=O)c4c(c13)CCC4=O)[C@@H]1C=CO[C@@H]1O2 [AFLATOXIN]	Not Active	Not Active
N=C(N)NC(=O)c1nc(Cl)c(N)nc1N [AMILORIDE]	Not Active	–
Cc1cc(=O)n(-c2ccccc2)n1C [ANTIPYRINE]	Not Active	–
CN1C(=O)COc2c(C(=O)NC3CN4CCC3CC4)cc(Cl)cc21 (configuration not stated) [AZASETRON]	Not Active	–
C[C@H]1C[C@H]2[C@@H]3CCC4=CC(=O)C=C[C@]4(C)[C@@]3(Cl)[C@@H](O)C[C@]2(C)[C@@]1(O)C(=O)CO [BECLOMETHASONE]	Not Active	–
CCOC(=O)[C@H](CCc1ccccc1)N[C@H]1CCc2ccccc2N(CC(=O)O)C1=O [BENAZEPRIL]	Not Active	–
Nc1c(CC(=O)O)cccc1C(=O)c1ccc(Br)cc1 [BROMFENAC]	Not Active	–

Target: T3, Cytochrome P450 1A2 (Homo sapiens, UniProt P05177); further: in other assays of this panel Not Active means under 50% inhibition at 10 µM
T3 sequence (P05177 whole entry): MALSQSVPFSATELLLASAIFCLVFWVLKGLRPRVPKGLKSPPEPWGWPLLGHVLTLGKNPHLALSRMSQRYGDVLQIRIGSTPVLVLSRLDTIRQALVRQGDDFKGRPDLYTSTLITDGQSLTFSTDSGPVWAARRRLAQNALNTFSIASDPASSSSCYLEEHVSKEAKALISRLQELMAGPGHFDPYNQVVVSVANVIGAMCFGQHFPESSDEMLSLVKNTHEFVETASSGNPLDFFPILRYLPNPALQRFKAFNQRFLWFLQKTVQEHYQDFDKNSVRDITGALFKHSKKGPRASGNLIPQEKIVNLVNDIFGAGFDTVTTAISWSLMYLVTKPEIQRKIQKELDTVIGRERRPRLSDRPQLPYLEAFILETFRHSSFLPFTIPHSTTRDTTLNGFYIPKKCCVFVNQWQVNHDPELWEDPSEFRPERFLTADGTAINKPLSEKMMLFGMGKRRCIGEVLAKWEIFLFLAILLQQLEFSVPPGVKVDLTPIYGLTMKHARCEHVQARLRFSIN
Settings: bti-tn-5b1-4

SMILES	IC50	Ki
COc1cc2c(c3oc(=O)c4c(c13)CCC4=O)[C@@H]1C=CO[C@@H]1O2 [AFLATOXIN]	Not Active	Not Active
N=C(N)NC(=O)c1nc(Cl)c(N)nc1N [AMILORIDE]	Not Active	Not Active
Cc1cc(=O)n(-c2ccccc2)n1C [ANTIPYRINE]	Not Active	Not Active
CN1C(=O)COc2c(C(=O)NC3CN4CCC3CC4)cc(Cl)cc21 (configuration not stated) [AZASETRON]	Not Active	Not Active
C[C@H]1C[C@H]2[C@@H]3CCC4=CC(=O)C=C[C@]4(C)[C@@]3(Cl)[C@@H](O)C[C@]2(C)[C@@]1(O)C(=O)CO [BECLOMETHASONE]	Not Active	Not Active
CCOC(=O)[C@H](CCc1ccccc1)N[C@H]1CCc2ccccc2N(CC(=O)O)C1=O [BENAZEPRIL]	Not Active	Not Active
Nc1c(CC(=O)O)cccc1C(=O)c1ccc(Br)cc1 [BROMFENAC]	Not Active	Not Active

Target: D(1A) dopamine receptor (Homo sapiens, UniProt P21728)
Sequence (P21728 whole entry): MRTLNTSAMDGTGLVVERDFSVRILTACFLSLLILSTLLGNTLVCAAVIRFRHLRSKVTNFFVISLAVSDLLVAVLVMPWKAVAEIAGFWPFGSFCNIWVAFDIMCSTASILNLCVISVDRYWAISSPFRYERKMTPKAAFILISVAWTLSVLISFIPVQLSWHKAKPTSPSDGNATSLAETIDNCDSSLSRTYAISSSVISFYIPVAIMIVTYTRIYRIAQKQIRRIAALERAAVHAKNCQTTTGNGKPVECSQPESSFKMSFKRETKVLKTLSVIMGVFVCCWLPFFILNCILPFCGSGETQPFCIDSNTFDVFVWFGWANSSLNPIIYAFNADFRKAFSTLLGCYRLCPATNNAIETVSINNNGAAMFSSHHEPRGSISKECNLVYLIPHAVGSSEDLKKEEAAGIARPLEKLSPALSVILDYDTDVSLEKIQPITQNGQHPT
Assay: DRUGMATRIX: Dopamine D1 radioligand binding (ligand: [3H] SCH-23390)
Assay type: cell membranes, Membrane
Settings: cho; Not Active = under 50% inhibition at 10 µM

SMILES	IC50	Ki
COc1cc2c(c3oc(=O)c4c(c13)CCC4=O)[C@@H]1C=CO[C@@H]1O2 [AFLATOXIN]	Not Active	Not Active
N=C(N)NC(=O)c1nc(Cl)c(N)nc1N [AMILORIDE]	Not Active	–
Cc1cc(=O)n(-c2ccccc2)n1C [ANTIPYRINE]	Not Active	–
CN1C(=O)COc2c(C(=O)NC3CN4CCC3CC4)cc(Cl)cc21 (configuration not stated) [AZASETRON]	Not Active	–
C[C@H]1C[C@H]2[C@@H]3CCC4=CC(=O)C=C[C@]4(C)[C@@]3(Cl)[C@@H](O)C[C@]2(C)[C@@]1(O)C(=O)CO [BECLOMETHASONE]	Not Active	–
CCOC(=O)[C@H](CCc1ccccc1)N[C@H]1CCc2ccccc2N(CC(=O)O)C1=O [BENAZEPRIL]	Not Active	–
Nc1c(CC(=O)O)cccc1C(=O)c1ccc(Br)cc1 [BROMFENAC]	Not Active	–

Test system: not listed separately
Assay: DRUGMATRIX: Tumor Necrosis Factor (TNF), Non-Selective radioligand binding (ligand: [125I] TNF-alpha)
Assay type: cell membranes, Membrane
Settings: u-937; Not Active = under 50% inhibition at 10 µM

SMILES	IC50	Ki
COc1cc2c(c3oc(=O)c4c(c13)CCC4=O)[C@@H]1C=CO[C@@H]1O2 [AFLATOXIN]	Not Active	Not Active
N=C(N)NC(=O)c1nc(Cl)c(N)nc1N [AMILORIDE]	Not Active	Not Active
Cc1cc(=O)n(-c2ccccc2)n1C [ANTIPYRINE]	Not Active	Not Active
CN1C(=O)COc2c(C(=O)NC3CN4CCC3CC4)cc(Cl)cc21 (configuration not stated) [AZASETRON]	Not Active	Not Active
C[C@H]1C[C@H]2[C@@H]3CCC4=CC(=O)C=C[C@]4(C)[C@@]3(Cl)[C@@H](O)C[C@]2(C)[C@@]1(O)C(=O)CO [BECLOMETHASONE]	Not Active	Not Active
CCOC(=O)[C@H](CCc1ccccc1)N[C@H]1CCc2ccccc2N(CC(=O)O)C1=O [BENAZEPRIL]	Not Active	Not Active
Nc1c(CC(=O)O)cccc1C(=O)c1ccc(Br)cc1 [BROMFENAC]	Not Active	Not Active

Target: Delta-type opioid receptor (Homo sapiens, UniProt P41143); further: in other assays of this panel Not Active means under 50% inhibition at 10 µM
Sequence (P41143 whole entry): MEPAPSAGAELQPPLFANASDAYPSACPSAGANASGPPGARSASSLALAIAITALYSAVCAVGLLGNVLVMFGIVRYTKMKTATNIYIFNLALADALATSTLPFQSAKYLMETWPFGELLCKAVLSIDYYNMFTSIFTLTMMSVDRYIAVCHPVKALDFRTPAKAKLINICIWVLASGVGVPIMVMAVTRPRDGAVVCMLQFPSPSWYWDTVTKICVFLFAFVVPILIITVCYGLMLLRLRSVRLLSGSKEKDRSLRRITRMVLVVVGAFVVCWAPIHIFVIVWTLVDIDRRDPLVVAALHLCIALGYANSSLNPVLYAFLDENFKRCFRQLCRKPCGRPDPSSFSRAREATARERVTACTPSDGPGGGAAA
Assay type: cell membranes, HEK293, Membrane
Settings: hek293

SMILES	IC50	Ki
COc1cc2c(c3oc(=O)c4c(c13)CCC4=O)[C@@H]1C=CO[C@@H]1O2 [AFLATOXIN]	Not Active	Not Active
N=C(N)NC(=O)c1nc(Cl)c(N)nc1N [AMILORIDE]	Not Active	–
Cc1cc(=O)n(-c2ccccc2)n1C [ANTIPYRINE]	Not Active	–
CN1C(=O)COc2c(C(=O)NC3CN4CCC3CC4)cc(Cl)cc21 (configuration not stated) [AZASETRON]	Not Active	–
C[C@H]1C[C@H]2[C@@H]3CCC4=CC(=O)C=C[C@]4(C)[C@@]3(Cl)[C@@H](O)C[C@]2(C)[C@@]1(O)C(=O)CO [BECLOMETHASONE]	Not Active	–
CCOC(=O)[C@H](CCc1ccccc1)N[C@H]1CCc2ccccc2N(CC(=O)O)C1=O [BENAZEPRIL]	Not Active	–
Nc1c(CC(=O)O)cccc1C(=O)c1ccc(Br)cc1 [BROMFENAC]	Not Active	–
